The values below are quoted from earlier work in US10456366B2, “Composition and methods for tissue regeneration” (Chiou Consulting, Inc., priority 2017, dated 2019).

For data set [1], the system named is rats. The conditions noted are these: water containing 10% of PG, two years.
In data set [2] the test system is dogs. To be noted: food containing 8% of PG, two years.

With `CC(O)CO` (centres unmarked) [PG, propylene glycol], the “adverse effects on feeding” value in data set [1] and in data set [2] was “no adverse effects” throughout.
